Measured values as given in article PMC3368886, “ATPase Cycle and DNA Unwinding Kinetics of RecG Helicase” (PLoS ONE, 2012).

What was measured:
[1] = molecular target: T1, RecG⋅DNA(A40:B40) (Thermotoga maritima, UniProt Q9WY48); assay: Stopped-flow mant fluorescence: mant nucleotide binding to RecG⋅DNA, pseudo-first-order; conditions: 20°C
T1 construct: made in house
T1 sequence (Q9WY48 1-780): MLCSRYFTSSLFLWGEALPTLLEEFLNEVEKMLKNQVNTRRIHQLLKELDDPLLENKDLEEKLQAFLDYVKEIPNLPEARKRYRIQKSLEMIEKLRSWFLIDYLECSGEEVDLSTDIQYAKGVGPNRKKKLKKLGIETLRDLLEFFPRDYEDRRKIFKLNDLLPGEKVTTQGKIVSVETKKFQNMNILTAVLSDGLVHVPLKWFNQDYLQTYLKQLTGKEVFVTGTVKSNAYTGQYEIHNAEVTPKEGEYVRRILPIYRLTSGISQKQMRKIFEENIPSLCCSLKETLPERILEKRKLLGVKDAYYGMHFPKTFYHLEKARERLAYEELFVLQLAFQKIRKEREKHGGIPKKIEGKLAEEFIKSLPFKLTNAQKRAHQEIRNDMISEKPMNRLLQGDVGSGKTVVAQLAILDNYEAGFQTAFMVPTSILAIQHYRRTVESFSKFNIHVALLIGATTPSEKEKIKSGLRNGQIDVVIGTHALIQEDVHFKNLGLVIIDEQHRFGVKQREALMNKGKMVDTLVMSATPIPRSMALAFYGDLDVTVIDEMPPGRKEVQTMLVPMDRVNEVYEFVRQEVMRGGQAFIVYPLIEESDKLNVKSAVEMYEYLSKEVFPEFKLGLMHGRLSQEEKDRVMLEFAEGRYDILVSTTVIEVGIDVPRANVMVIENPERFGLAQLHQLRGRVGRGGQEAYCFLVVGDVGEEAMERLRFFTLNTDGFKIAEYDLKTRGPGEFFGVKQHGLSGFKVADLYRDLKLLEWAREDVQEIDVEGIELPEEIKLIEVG
Description: MantATP binding to RecG⋅DNA(A40:B40) was measured under pseudo-first-order conditions, that is mantATP in large excess over the protein. Using the stopped-flow apparatus, several concentrations of mantATP were rapidly mixed with RecG⋅DNA and fluorescence followed with time. Each trace was fitted by a single exponential (Figure 3A) and the concentration dependence of the observed rate constants were fit well by a hyperbola (Figure 3B). […] As mantATP is also hydrolyzed, the rate of the forward reaction needs to be included, in this case limited by the cleavage step 2, as described later. The fit gives 1/K 1a as 24 (±4) µM, k +1b + k −1b + k +2 as 26.1 (±1.8) s^−1 and the intercept gives k −1b + k +2 as <1 s^−1. Given that k +2 is 0.2 s^–1 (see below), k −1b is <0.8 s^−1. Potentially, an alternative explanation for such a hyperbolic relationship could be preferential binding of either the 2′- or 3′-isomer of mantATP and then isomerization of the non-favored isomer. However, the observed rates in these measurements were several orders of magnitude faster than the likely isomerization rate. In order to assess whether the two isomers of mantATP and their interconversion are factors in any fluorescence traces for mantATP, an equivalent measurement was made using 3′-mant-2′-deoxyATP.
Figure 3 MantATP binding to RecG⋅DNA. MantATP at the micromolar concentrations shown was mixed in the stopped flow apparatus with 0.5 µM RecG and 2.5 µM DNA Junction (A40:B40) at 20°C in the buffer described in materials and methods. Individual traces (offset from each other) were fitted to single exponentials and the dependence of the rate constants on concentration was then fitted by a hyperbola. The points shown are averages of at least 3 measurements. The fit gives 1/K 1a as 24 (±4) µM and k +1b + k− 1b + k +2 as 26.1 (±1.8) s^−1 and the intercept was <1 s^–1 (Scheme in Figure 2B).
MantADP binding to RecG⋅DNA complex was measured under pseudo-first order conditions by stopped-flow fluorescence.
Figure 5 MantADP binding kinetics to RecG⋅DNA. MantADP at various concentrations was mixed in the stopped flow apparatus with 0.5 µM RecG and 2.5 µM DNA (A40:B40) under the conditions of Figure 4. Traces (not shown) were fitted by single exponentials. The rate constants are shown as a function of concentration and the best linear fit, gives a slope of 1.1 (±0.4) µM^−1s^−1 and an intercept of <1 s^−1.
Stopped-flow experiments were performed in a HiTech SF61DX2 apparatus (TgK Scientific Ltd, Bradford-on-Avon, UK) with a mercury-xenon light source and HiTech KinetAsyst 3 or Kinetic Studio 1 software. For MDCC-PBP fluorescence, the excitation wavelength used was 436 nm and a 455 nm cut-off filter (Schott glass) used to collect emitted light. The signal was calibrated using known concentrations of Pi. The solutions contained the Pi mop, to minimize phosphate contamination and comprising 0.01 unit ml^−1 bacterial purine nucleoside phosphorylase and 200 µM 7-methylguanosine. For mant fluorescence, 366 nm was used to excite and a 400 nm cut-off filter (Schott glass) used to collect light. Measurements of Cy3 fluorescence used 547 nm excitation and a 570 nm cut-off filter. In experiments described, the quoted concentrations are those in the mixing chamber, except where stated. Data were fitted to theoretical curves using the HiTech software or Grafit.

[2] = molecular target: T2, RecG (Thermotoga maritima, UniProt Q9WY48); assay: mantATP cleavage (acid quench) and Pi release in the absence of DNA; assay type: biochemical
T2 construct: made in house
T2 sequence (Q9WY48 1-780): T1 sequence (Q9WY48 1-780)
Description: As done for the RecG⋅DNA complex, measurements were also taken with an excess of RecG over mantATP (Figure S3B). A large, relative rapid, increase in mant fluorescence was observed followed by a small gradual increase. The rate constants are consistent with those at excess mantATP. Under the same conditions of excess RecG over mantATP, mantATP cleavage (acid quench) and Pi release were measured (Figure S3B). […] The cleavage step rate constant was 4×10^−4 s^−1, ∼10^3 slower than in the presence of DNA. […] The cleavage step was greatly stimulated by DNA.
Supplementary file pone.0038270.s003.tif: Figure S3 Kinetic measurements in the absence of DNA. (A) Association kinetics with mantATP. Dependence of the observed rate constants on mantATP concentration from mixing 0.5 µM RecG with excess mantATP under the same conditions as Figure 3. Points shown are typically an average of three individual measurements. The best linear fit gives a slope of 0.4 (±0.15) µM^−1 s^−1 and intercept 1.7 (±0.6) s^−1. (B) Fluorescence trace upon mixing 2.5 µM RecG with 0.5 µM mantATP under the conditions of Figure 4. […] Note that as the fluorescence slowly increases beyond the time course, it was not possible to calibrate the ordinate. […] Pi release kinetics (continuous line) were measured for the same mixture containing 10 µM MDCC-PBP. […]

What does the source list for `CNc1ccccc1C(=O)O[C@H]1[C@@H](O)[C@H](n2cnc3c(N)ncnc32)O[C@@H]1COP(=O)(O)OP(=O)(O)OP(=O)(O)O` [mantATP, 2′(3′)-O-(N-methylanthraniloyl)ATP]?
k +1b [1]: 25.1 s⁻¹; k −1b [1]: <0.8 s⁻¹; k −4 (mantADP second order binding rate constant, slope) ([1]; linear fit): 1.1e+06 M⁻¹ s⁻¹; intercept, k −1b + k +2 ([1]; hyperbolic fit): < 1 s⁻¹; k +1b + k −1b + k +2 ([1]; hyperbolic fit): 26.1 (±1.8) s^−1; cleavage step rate constant ([2]; absence of DNA, excess RecG over mantATP): 0.0004 s⁻¹; cleavage slower than in the presence of DNA ([2]; absence vs presence of DNA): ~10^3
